Patent publication US8592484B2, “Cosmetic composition containing calcium citrate and N-acylated aminoalcohol derivative to prevent dry skin and signs of cutaneous ageing” (Cognis IP Management GmbH, priority 2009, dated 2013)
Where “and” joins values, the source holds several entries; their conditions need not be identical. Equal values may be shown once. Marks after values point to notes of the source that are not given here.

Legend:
human keratinocytes [1] = assay: Keratinocyte differentiation: involucrin by ELISA in primary culture of human keratinocytes; format: cell-based; settings: for Involucrin (in % +/− SEM): 1 day incubation; for effect on the synthesis of the keratinocyte differentiation marker involucrin (in words): at the tested concentrations
Description: The purpose was to evaluate the potential of the products to stimulate the differentiation of human keratinocytes into corneocytes and therefore the formation of an optimal skin barrier. The products were tested on primary culture of human keratinocytes by measuring the quantity of synthesized involucrin through an ELISA method. Involucrin is a rod shaped protein of 68 kD released by keratinocytes of early spinous layers up to granular layer of human epidermis.
(§1) Human keratinocytes were seeded in growth medium (standard medium MCDB153 completed by Fetal Calf Serum at 2%). After 3-4 days of incubation at 37° C., CO2=5%, the growth medium was exchanged by standard medium MCDB153 without FCS (untreated control), and with a range of concentrations of products to be tested. After 1 day of incubation at 37° C., CO2=5%, the lack of cytotoxicity of the different product and doses tested was recorded using MTT test, and the level of involucrin was measured by an ELISA method.
The results are expressed in % versus control and presented as a mean+/−SEM (standard error of mean) of 2 or 3 assays (different donors of keratinocytes) in duplicate or triplicate.

human keratinocytes [2] = assay: MTT test, viability of human keratinocytes; format: cell-based; settings: at the concentrations tested for involucrin
Description: as §1

ceramidase = assay: Ceramidase inhibition, enzymatic extract of PMA-activated HL60 cells, [14C]-C16 ceramide substrate; format: biochemical; settings: 1 hour at 37° C., mean of triplicate
Description: HL60 cells activated with Phorbol 12-myristate 13-acetate (PMA) at 5 nM were cultured in 175 cm^2 flasks. […] The supernatant obtained after centrifugation constituted the enzymatic extract.
The substrate [^14C]—C16 ceramide (N-palmitoyl-D-Sphingosine) was prepared as follows:
Evaporation of the organic phase and dissolution in distilled water. […] After evaporation and addition of Triton and cholate, the purified substrate was solubilised in distilled water.
The reaction mixture was incubated at 37° C. during 1 hour. The reaction mixture consisted of 5 μl MgCl2 (50 mM), 25 μl enzymatic extract or buffer; 7.5 μl substrate and 12.5 μl product to be tested. The products to be tested were prepared 4× concentrated in buffer at the tested pH and contained 1% of ethanol in final.
The quantification of enzymatic degradation of substrate was realized by measuring of radioactivity in heptane phase. […] The mixture was vortexed and centrifuged at 12 000 g 5 minutes. […] Results are expressed as the % of control.

Compound | effect on the synthesis of the keratinocyte differentiation marker involucrin (in words) (human keratinocytes [1]) | viability (MTT test) of the human keratinocytes (human keratinocytes [2]) | Ceramidase activity in %/control (ceramidase; dose 5 μM) | Ceramidase activity in %/control (ceramidase; dose 50 μM) | Ceramidase activity in %/control (ceramidase; dose 500 μM) | also measured
[Ca+2].[Cl-].[Cl-] [CaCl2, Calcium chloride, reference compound] | significantly enhance | not significantly changed | – | – | – | Involucrin (in % +/− SEM) (human keratinocytes [1]; CaCl2 dose 0.1 mM (Ca2+: 0.1 mM)): 21.9 +/− 5.3 ** %; Involucrin (in % +/− SEM) (human keratinocytes [1]; dose 0.013 mM (Ca2+: 0.013 mM)): 3.4 +/− 4.6^ %; Involucrin (in % +/− SEM) (human keratinocytes [1]; dose 0.026 mM (Ca2+: 0.026 mM)): −1.4 +/− 4.6 ^ %; Involucrin (in % +/− SEM) (human keratinocytes [1]; dose 0.3 mM (Ca2+ 0.3 mM)): 84.4 +/− 1.9 *** %
CCCCCCCC/C=C\CCCCCCCCNCCO [N-Oleyl-ethanolamine, reference compound] | – | – | 98% | 94% | 79% | –
CCCCCCCC/C=C\CCCCCCCCNCC(O)CO (stereo not shown) [N-oleyl-(3 amino-1,2-propanediol)] | – | – | 81% | 78% | 71% | –
O.O.O.O.O=C([O-])CC(O)(CC(=O)[O-])C(=O)[O-].O=C([O-])CC(O)(CC(=O)[O-])C(=O)[O-].[Ca+2].[Ca+2].[Ca+2] [Tricalcium dicitrate tetrahydrate, Tricalcium citrate tetrahydrate] | significantly enhance | not significantly changed | – | – | – | effect on keratinocytes differentiation compared with Calcium chloride (human keratinocytes [1]; at equimolar doses of Ca2+, p<0.001 for Ca2+ 0.026 and 0.1 mM): more potent; Involucrin (in % +/− SEM) (human keratinocytes [1]; dose 0.0044 mM, 0.00025 % w/v (Ca2+: 0.013 mM)): 0.5 +/− 2.6^ % and 0.5 +/− 2.6%; Involucrin (in % +/− SEM) (human keratinocytes [1]; dose 0.0088 mM, 0.00050 % w/v (Ca2+: 0.026 mM)): 31.6 +/− 2.9 *** %; Involucrin (in % +/− SEM) (human keratinocytes [1]; dose 0.033 mM (Ca2+: 0.1 mM)): 73.4 +/− 3.7 *** %; Involucrin (in % +/− SEM) (human keratinocytes [1]; tricalcium dicitrate dose 0.1 mM (Ca2+ 0.3 mM)): 101.7 +/− 7.2 *** %
